Results taken from patent EP1143970B1, “PYRIDINE COMPOUNDS, USE AND PREPARATION THEREOF” (priority 1999, dated 2000).
Where two headings read alike, the source gives them in different places. Marks after values point to notes of the source that are not given here.

Experiments:
[1] = Anti-cancer activity (test not described)
P388/BCNU = experiment: Antitumor activity against IP-implanted P388/BCNU leukemia in mice
P388/CPA = experiment: Antitumor activity against IP-implanted P388/CPA leukemia in mice; format: in vivo, murine
U251 CNS = experiment: In vivo antitumor activity against s.c.-implanted human tumor xenograft U251; conditions: sc U251; IP 90 mg/kg/dose, Days 19-23
P388/L-PAM = experiment: Antitumor activity against IP-implanted P388/L-PAM leukemia in mice; conditions: P388/L-PAM
ZR-75-1 mammary = experiment: In vivo antitumor activity against s.c.-implanted human tumor xenograft ZR-75-1; conditions: sc ZR-75-1
human MX-1 mammary tumor [2] = experiment: In vivo antitumor activity against s.c.-implanted human MX-1 mammary tumor xenograft; conditions: sc MX-1; IP 60 mg/kg/dose, Days 15-19
From the text: (§1) The antitumor activity data of the acyl derivatives of DM-PEN vs MX-1 human mammary tumor xenograft implanted s.c. or i.c. with intraperitoneal (i.p.) or oral drug treatment are shown in Table 1 below.

human MX-1 mammary tumor [3] = experiment: In vivo antitumor activity against i.c.-implanted human MX-1 mammary tumor xenograft; set-up: species or system mouse
From the text: as §1
Table 2Comparative Activity of PEN, DM-PEN and DM-ACYL-PEN Against […] Human MX-1 Mammary Tumor at Optimal Doses (LD10 or Less) and Schedule (QD1-5) Administered I.P.

[4] = P388/0, IP 20.0 MG/KG/DOSE, Q1D X 1 (1)
[5] = IP 30.0 MG/KG/DOSE, Q1D X 1 (1)
[6] = IP 60.0 MG/KG/DOSE, Q1D X 5 (1)
[7] = IP 90.0 MG/KG/DOSE, Q1D X 5 (1)
[8] = IP 135.0 MG/KG/DOSE, Q1D X 5 (1)
[9] = highest nontoxic doses evaluated, difference to DM-PEN
[10] = highest nontoxic doses evaluated, difference to PEN
[11] = P388/0, IP 90.0 MG/KG/DOSE, Q1D X 5 (1)
[12] = P388/0, IP 135.0 MG/KG/DOSE, Q1D X 5 (1)

In the case of CCOc1nc(C(Cl)(Cl)Cl)c(Cl)c(OCC)c1Cl [3,5-dichloro-4,6-diethoxy-2-(trichloromethyl)pyridine], the “anti-cancer activity (in words)” value [1] is reported as “show active anti-cancer activity”.

In the case of CCOc1c(Cl)c(OC)nc(C(Cl)(Cl)Cl)c1Cl [3,5-dichloro-4-ethoxy-6-methoxy-2-(trichloromethyl)pyridine], the “anti-cancer activity (in words)” value [1] is reported as “show active anti-cancer activity”.

With O=NN(CCCl)C(=O)NCCCl [BCNU, carmustine] the “50-DAY SURV./ TOTAL” value (P388/0; [4]) was 3 / 6, the “% ILS” value (P388/0; [4]) was “+145%” and the “APPROX. NET LOG10 CHANGE IN TUMOR BURDEN AT END OF Rx” value (P388/0; [4]) was “ca-6.8”. The “50-DAY SURV./ TOTAL” value (P388/0; P388/0, IP 30.0 MG/KG/DOSE, Q1D X 1 (1)) was 6 / 6, the “50-DAY SURV./ TOTAL” value (P388/BCNU; IP 20.0 MG/KG/DOSE, Q1D X 1 (1)) was 0 / 6 and the “50-DAY SURV./ TOTAL” value (P388/BCNU; [5]) was 0 / 6. The “MEDIAN DAY OF DEATH” value (P388/BCNU; [5]) was 6.5.

For O=P1(N(CCCl)CCCl)NCCCO1 (centres unmarked) [CPA, cyclophosphamide], the “50-DAY SURV./ TOTAL” value (P388/CPA; IP 175.0 MG/KG/DOSE, Q1D X 1 (1)) was 0 / 6, the “50-DAY SURV./ TOTAL” value (P388/CPA; IP 265.0 MG/KG/DOSE, Q1D X 1 (1)) was 0 / 6 and the “50-DAY SURV./ TOTAL” value (P388/0; P388/0, IP 175.0 MG/KG/DOSE, Q1D X 1 (1)) was 1 / 6. For the same compound, the “50-DAY SURV./ TOTAL” value (P388/0; P388/0, IP 265.0 MG/KG/DOSE, Q1D X 1 (1)) was 6 / 6.

For COc1nc(C(Cl)(Cl)Cl)c(Cl)c(OC(C)=O)c1Cl [DM-A-PEN], the “50-DAY SURV./ TOTAL” value (P388/CPA; [6]) was 0 / 6, the “50-DAY SURV./ TOTAL” value (P388/CPA; [7]) was 0 / 6 and the “% ILS” value (P388/CPA; [7]) was “+66%”. The “MEDIAN DAY OF DEATH” value (P388/CPA; [7]) was 20.5, the “50-DAY SURV./ TOTAL” value (P388/CPA; [8]) was 0 / 6 and the “% ILS” value (P388/CPA; [8]) was “+127%”. The “more active than DM-PEN, log cell kill” value (P388/CPA; [9]) was 4.6 log cell kill, the “more active than PEN, log cell kill” value (P388/CPA; [10]) was 7.4 log cell kill and the “50-DAY SURV./ TOTAL” value (P388/0; P388/0, IP 60.0 MG/KG/DOSE, Q1D X 5 (1)) was 0 / 6. The “50-DAY SURV./ TOTAL” value (P388/0; [11]) was 0 / 6, the “MEDIAN DAY OF DEATH” value (P388/0; [11]) was 21.5 and the “50-DAY SURV./ TOTAL” value (P388/0; [12]) was 0 / 6. For the same compound, the “Lethality at the stated dosage (LD level)” value (shortened to “Lethality”) (P388/0; [12]) was “LD33”, the “MEDIAN DAY OF DEATH” value (P388/0; [12]) was 28.5 and the “more active than PEN, log cell kill” value (P388/0; P388/0, highest nontoxic doses evaluated, difference to PEN) was 0.4 log cell kill. For the same compound, the “more active than DM-PEN, log cell kill” value (P388/0; P388/O, highest nontoxic doses evaluated, difference to DM-PEN) was 1.9 log cell kill, the T-C (U251 CNS) was 15.7 days and the “50-DAY SURV./ TOTAL” value (P388/BCNU; [6]) was 1 / 6. For the same compound, the “50-DAY SURV./ TOTAL” value (P388/BCNU; [7]) was 0 / 6, the “50-DAY SURV./ TOTAL” value (P388/BCNU; [8]) was 0 / 6 and the “% ILS” value (P388/BCNU; [8]) was “+133%”. The “Lethality” value (P388/BCNU; [8]) was “LD17”, the “more active than DM-PEN, log cell kill” value (P388/BCNU; [9]) was 1.5 log cell kill and the “more active than PEN, log cell kill” value (P388/BCNU; [10]) was 3.5 log cell kill. The “50-DAY SDRV./ TOTAL” value (P388/L-PAM; [6]) was 0 / 6, the “50-DAY SDRV./ TOTAL” value (P388/L-PAM; [7]) was 0 / 6 and the “50-DAY SDRV./ TOTAL” value (P388/L-PAM; [8]) was 0 / 6. The “Lethality” value (P388/L-PAM; [8]) was “LD17”, the “more active than PEN or DM-PEN, log cell kill” value (P388/L-PAM; difference to PEN or DM-PEN) was 0.2-0.3 log cell kill and the T-C (ZR-75-1 mammary; IP 60 mg/kg/dose, Days 10-14) was 10.6 days. The T-C (ZR-75-1 mammary; IP 90 mg/kg/dose, Days 8-12) was 14.1 days and the “Lethality” value (human MX-1 mammary tumor [2]) was 60 (LD20).

For COc1nc(C(Cl)(Cl)Cl)c(Cl)c(OC(=O)c2ccccc2)c1Cl [DM-B-PEN], the Tumor-Free-Surv/Total (human MX-1 mammary tumor [3]; ic MX-1, IP 135 mg/kg/dose, Days 1-5) was “. 0/5”.

In the case of COc1nc(C(Cl)(Cl)Cl)c(Cl)c(OC(=O)c2ccco2)c1Cl [DM-F-PEN], the “Median % ILS” value (human MX-1 mammary tumor [3]; I.C.-implanted MX-1, optimal doses (LD10 or less), schedule QD1-5, I.P., based on dying mice only) is reported as 108^c %.
